Measured values as given in US20220142958A1, “MEDICINAL COMPOSITION HAVING EXCELLENT STABILITY” (EA Pharma Co., Ltd., priority 2019, published 2022).

What was measured:
[1] = Example 1A: residual ratio of Compound A1 in buffer solutions stored at 5° C.; assay type: physicochemical; conditions: for Residual ratio (%): 0.1 mg/mL
Experimental: Compound A1 was dissolved in each of the buffer solutions so that a concentration was 0.1 mg/mL. Each of these solutions was dispensed into a glass vial and stored at 5° C. After the storage, a residual ratio was calculated according to a test method described below.
Test method: In the solution after the storage, the residual ratio was analyzed according to a normal method using a liquid chromatography apparatus Prominence (manufactured by Shimadzu Corporation) and an ultraviolet absorptiometer (measurement wavelength: 254 nm, Prominence (manufactured by Shimadzu Corporation)). At this time, SUMIPAX ODS (3 mm×150 mm, 5 μm, manufactured by SCAS) was used as a column.
The residual ratio (%) of Compound A1 during each storage period at 5° C. was calculated as follows.
Residual ratio (%) of Compound A1 during each storage period=peak area of Compound A1 in sample solution/sum of peak area of sample solution×100

serum Ca concentration = test: Serum Ca concentration in bilaterally nephrectomized rats after single intravenous administration; assay type: in vivo, rat
Text: After quarantine and acclimatization periods of 6 days, fifty-one rats (Crl: CD (SD), male) aged 7 weeks were fed a 100% sucrose diet ad libitum from four days before the surgery. On the day of the surgery, skin incisions were made on the back at the sites of the right and left kidneys under isoflurane anesthesia and the renal capsules were removed to ligate the renal arteries and veins and the ureters using threads before removing the right and left kidneys. A penicillin solution was given upon suturing, and 5 mL of physiological saline was intraperitoneally administered before returning the rats into the breeding cages.
On the day of administering the test substance, for example, a day after the bilaterally nephrectomy, approximately 100 μL of blood was collected from the tail vein without anesthesia using a capillary tube, which was centrifuged in a high speed refrigerated microcentrifuge (10,000 rpm, 5 min, 4° C.) to separate the serum. Thereafter, the serum Ca concentration was measured with a dri-chemanalyzer (model number: FUJI DRI-CHEM 7000, manufacturer: FUJI FILM Medical Co., Ltd.) to select individuals with a serum Ca concentration of 8.0 mg/dL or more and less than 14.0 mg/dL.
On a day after the bilaterally nephrectomy, the given doses were calculated based on the weight of the selected animals on that day. Group 1 was given a medium (physiological saline), Groups 2, 3 and 4 were given the Compound A1 solution (0.3, 3 and 30 mg/mL, respectively), and Groups 5, 6, 7 and 8 (5 rats per group) were given the comparative compound (0.3, 1, 3 and 10 mg/mL, respectively), each given a single dose of 1 ml/kg from the tail vein. Prior to the administration (0 hours), and 24 and 48 hours after the administration, approximately 300 μL of blood was collected without anesthesia from the tail vein using capillary tubes for obtaining the serum. The blood for obtaining the serum was left to stand at room temperature, and centrifuged in a high speed refrigerated microcentrifuge (10,000 rpm, 5 min, 4° C.) within a period of 30 minutes to 2 hours after the blood collection to collect the serum.
Thereafter, the serum Ca was analyzed with COBAS analyzer (Model number: COBAS INTEGRA 400 plus, manufacturer: Roche Diagnostics K.K.), and the remaining serum was stored in an ultra-low freezer (temperature set to −80±15° C.) until the day of iPTH measurement. On the day of iPTH measurement, the serum was melted at room temperature for measurement.
A 30 mg/ml Compound A1 solution ([…] of Compound A1 dissolved in 10 ml of physiological saline) was diluted with physiological saline to prepare 0.3 mg/ml and […] Compound A1 solutions.
149 mg of etelcalcetide (Ac-c(C) arrrar-NH2) TFA salt (WO 2011/014707 A) was prepared to have pH of 6 to 8 with 7 ml of physiological saline and a 0.5N aqueous NaOH solution, and physiological saline was further added thereto to make 10 ml. The prepared 10 mg/ml comparative compound solution was diluted with physiological saline to obtain 0.3 mg/ml and 1 mg/ml comparative compound solutions.

male beagles = test: Emetogenicity of Compound A1 in dogs; assay type: in vivo, dog; conditions: for Number of vomiting cases/Number of administration: Intravenous
Experimental: A crossover trial was conducted with male beagles (Nosan Beagle, 14 to 87-month-old, weight: 10.2 kg to 15.8 kg). The Compound A1 solutions used in Reference Example 2 were given at 0.3, 1 and 10 mg/kg by bolus administration (0.5 mL/kg, 1 mL/sec) to 3 to 6 dogs per dose to confirm the manifestation of vomiting immediately after the administration. Administration was conducted once or twice a week with an interval of 2 days or longer. Administration was conducted prior to feeding. Symptoms prior to, immediately after, and 15 and 30 minutes after the administration were observed.

serum iPTH = test: PK and PK/PD analysis of P1 (three-compartment model, indirect response model incorporating rebound); assay type: in vivo, human; conditions: ±standard error
Experimental: A PK/PD analysis was conducted to estimate the clinically effective dose based on the results from P1. The dose of 2.5 mg seemed to be excessive and thus was eliminated from the analysis. PK (mean plasma concentration) and PD (mean iPTH level normalized by the levels of the placebo group and the 0-hour level) data of the doses of 0.01 mg, 0.1 mg and 1 mg were used. An indirect response model incorporating rebound was used for the PK/PD analysis.
Based on the results of PK of the three given doses (0.01 mg, 0.1 mg, and 1 mg) in P1, the three given doses were simultaneously analyzed using a three-compartment model to calculate the PK parameters (FIG. 2-5 and Table 16-2).
Using the calculated PK parameters as an input function, PK/PD analysis was performed using an indirect response model incorporating rebound (FIG. 2-6) to calculate the EC50 value in healthy adults (FIG. 2-7 and Table 16-3).

Cc1c(Cl)cc(S(=O)(=O)[O-])cc1NC(=O)NC[C@H](N)C(=O)O.[Na+] [Compound A1, sodium 3-{[(2S)-2-amino-2-carboxyethyl]carbamoylamino}-5-chloro-4-methylbenzenesulfonate]
Residual ratio (%) ([1]; pH 1.1, 5° C., 24 hours): 100% | Residual ratio (%) ([1]; pH 1.1, 5° C., 113 hours): 100% | Residual ratio (%) ([1]; pH 1.1, 5° C., 161 hours): 100% | Residual ratio (%) ([1]; pH 2.0, 5° C., 24 hours): 100% | Residual ratio (%) ([1]; pH 2.0, 5° C., 113 hours): 100% | Residual ratio (%) ([1]; pH 2.0, 5° C., 161 hours): 100% | Residual ratio (%) ([1]; pH 3.0, 5° C., 24 hours): 100% | Residual ratio (%) ([1]; pH 3.0, 5° C., 113 hours): 100% | Residual ratio (%) ([1]; pH 3.0, 5° C., 161 hours): 100% | Residual ratio (%) ([1]; pH 4.0, 5° C., 24 hours): 100% | Residual ratio (%) ([1]; pH 4.0, 5° C., 113 hours): 100% | Residual ratio (%) ([1]; pH 4.0, 5° C., 161 hours): 100% | Residual ratio (%) ([1]; pH 5.0, 5° C., 24 hours): 100% | Residual ratio (%) ([1]; pH 5.0, 5° C., 113 hours): 100% | Residual ratio (%) ([1]; pH 5.0, 5° C., 161 hours): 100% | Residual ratio (%) ([1]; pH 6.0, 5° C., 24 hours): 100% | Residual ratio (%) ([1]; pH 6.0, 5° C., 113 hours): 100% | Residual ratio (%) ([1]; pH 6.0, 5° C., 161 hours): 100% | Residual ratio (%) ([1]; pH 7.0, 5° C., 24 hours): 100% | Residual ratio (%) ([1]; pH 7.0, 5° C., 113 hours): 100% | Residual ratio (%) ([1]; pH 7.0, 5° C., 161 hours): 100% | stability of the formulation ([1]; pH of 1.1 to 7.0, 5° C.): stable | mean serum Ca concentration (serum Ca concentration; 0.3 mg/kg single i.v., 24 hours after the administration): 9.07 mg/dL | mean serum Ca concentration (serum Ca concentration; 0.3 mg/kg single i.v., 48 hours after the administration): 10.24 mg/dL | mean serum Ca concentration (serum Ca concentration; 3 mg/kg single i.v., 24 hours after the administration): 7.97 mg/dL | mean serum Ca concentration (serum Ca concentration; 3 mg/kg single i.v., 48 hours after the administration): 8.55 mg/dL | mean serum Ca concentration (serum Ca concentration; 30 mg/kg single i.v., 24 hours after the administration): 7.99 mg/dL | mean serum Ca concentration (serum Ca concentration; 30 mg/kg single i.v., 48 hours after the administration): 8.14 mg/dL | lower limit value of the serum Ca concentration (simulated) (serum Ca concentration; logistic curve fitting, 48 hours after the administration vs given dose): 8.072 mg/dL | Number of vomiting cases/Number of administration (male beagles; 0.3 mg/kg): 0/3 | Number of vomiting cases/Number of administration (male beagles; 1 mg/kg): 0/3 | Number of vomiting cases/Number of administration (male beagles; 10 mg/kg): 1/6 | therapeutic margin with respect to vomiting (dog C0 vs human C0) (male beagles; dog 1 mg/kg vs human 0.1 mg/man): ≥ 430 times | Emax (serum iPTH; healthy adults, indirect response model incorporating rebound): 0.920 ± 0.027 ratio | K12 (serum iPTH; three-compartment model): 0.658 ± 0.136 h⁻¹ | K13 (serum iPTH; three-compartment model): 4.42 ± 1.80 h⁻¹ | K21 (serum iPTH; three-compartment model): 0.819 ± 0.049 h⁻¹ | K31 (serum iPTH; three-compartment model): 6.89 ± 1.33 h⁻¹ | Ke (serum iPTH; three-compartment model): 1.28 ± 0.15 h⁻¹
